Read-outs that look alike come from different tables or passages of the source.
Experiments:
[1] = test system: Wistar strain of male rats; test: Anti-pyretic activity (dry-yeast-induced fever); format: in vivo, rat (Wistar); settings: oral (dose not given), up to 4 hours after administration
Procedure: (§1) Next, several tests for determining the pharmacological properties, in that acute toxicity, anti-pyretic activity, analgesic activity and anti-inflammatory activity of the present 1,1,3,5-substituted biuret compounds of the formula (1) were conducted and the test results are shown in Table (2). In the tests, each compounds to be tested was used as a suspension in 0.25% carboxymethylcellulose solution. Methods for testing are explained as follows:
According to the method reported by Tanabe [Folia Pharmacologia Japonica, Vol. 73, pp. 803 (1977)], the Wistar strain of male rats (150-180 g, body weight) were used as test animals. The rats were fasted overnight, and 1 ml/100 g (body weight) of 10% dry-yeast suspension were subcutaneously injected on the back of the rats. Five hours after the injection, the test compound was administered orally, then the body temperature of the rat was measured at time sequences. Anti-pyretic activity of the test compound was determined as the FI (febril index) by integrating pyrogenetic curve up to 4 hours after the administration of the test compound with time, and indicated as inhibitory ratio (%) shown by the following formula, [formula]

ddy strain of male mice [2] = test: Analgesic activity, acetic acid-induced stretching method; format: in vivo, mouse (ddy); settings: for ED50: oral, Δ mark, range in parentheses
Procedure: as §1
According to the method reported by Koster et al., [Fed. Proc., Vol. 18, pp. 412 (1959)], the ddy strain of male mice (body weight, 20-25 g) were used as test animals. The mice were fasted overnight, 100 mg/kg body weight of the test compound was administered orally, then 1 hour after the administration, 0.2 ml of 0.7% acetic acid solution was injected intraperitoneally. The acetic acid-induced stretching symptom of mouse was observed. Analgesic activity of the test compound was calculated as the inhibitory ratio (%). In Table 2, the values in parentheses show the data obtained from the test by using the dosage other than 100 mg/kg body weight. Further, the values indicated with Δ marks show 50% effective dose, ED50 (mg/kg body weight).

[3] = test system: Wistar strain of male rats; test: Anti-inflammatory activity (acute carrageenin-induced inflammatory test, hindpaw); format: in vivo, rat (Wistar); settings: for inhibition in vivo at 100 mg/kg: Rattus norvegicus, read-out: Anti-inflammatory activity, inflammation inhibitory ratio
Procedure: as §1
According to the method of acute carrageenin-induced inflammatory test [Folia Pharmacologia Japonica, Vol. 56, pp. 575 (1960)], the Wistar strain of male rats (body weight, 150-180 g) were used as test animals. The rats were fasted overnight, 100 mg/kg body weight of the test compound was administered orally, then 1 hour after the administration, 0.1 ml of 1% carrageenin solution, as the inflammation inducing agent, was injected subcutaneously to the hindpaw of the rat and the volume of the hindpaw was measured at time sequences, Anti-inflammatory activity of the test compound was calculated as inflammation inhibitory ratio (%) at 3 hours after the injection of inflammation inducing agent.

ddy strain of male mice [4] = test: Analgesic activity, Haffner method (morphine threshold dose, clamp); format: in vivo, mouse (ddy); settings: for ED50: oral, Δ mark, range in parentheses
Procedure: as §1
According to the modified method reported by Fujimura et. al., [Bulletin of the Institute for Chemical Research, Kyoto University, No. 25, pp. 36 (1951)], the ddy strain of male mice (body weight, 20-25 g) were used as test animals. The mice were fasted overnight, 100 mg/kg body weight of the test compound was administered orally, then 45 minutes after the administration, the threshold amount (1.5-2.5 mg/kg body weight) of morphine hydrochloride was injected subcutaneously. Then 1-hour pain reaction of the mouse caused by a clamp was observed. Analgesic activity of the test compound was calculated as the inhibitory ratio (%). In Table 2, the values in parentheses show the data obtained from the test by using the dosage other than 100 mg/kg body weight. Further, the values indicated with Δ marks show 50% effective dose, ED50 (mg/kg body weight).

ddy strain of male mice [5] = test: Acute toxicity (oral, mice, 7 days observation); format: in vivo
Procedure: as §1
The ddy strain of male mice (body weight, 20-25 g) were used as test animals. The mice were fasted overnight and the compound to be tested was administered orally. […] The lethal dose (mg/kg, body weight) of the test compound was determined in connection with the death number of mice/the number of mice tested. In Table 2, the values indicated with Δ marks are 50% lethal dose, LD50 (mg/kg, body weight).

[6] = 100 mg/kg oral, 1 hour before acetic acid
[7] = 100 mg/kg oral, 3 hours after carrageenin
[8] = 100 mg/kg oral, 45 minutes before morphine hydrochloride
[9] = Mus musculus, po, read-out: Analgesic activity, acetic acid-induced stretching method, inhibitory ratio
[10] = Mus musculus, 200 mg/kg oral, read-out: Analgesic activity, Haffner method, inhibitory ratio

SMILES	Anti-pyretic activity, inhibitory ratio (febril index) [1]	Anti-inflammatory activity, inflammation inhibitory ratio ([3]; 100 mg/kg oral, (2 hours))	ED50 (ddy strain of male mice [4]; Mus musculus)	Analgesic activity, acetic acid-induced stretching method, inhibitory ratio (ddy strain of male mice [2]; [6])	Acute toxicity: death number of mice/number of mice tested (ddy strain of male mice [5]; 1000 mg/kg oral)	Anti-inflammatory activity, inflammation inhibitory ratio [3, 7]	Analgesic activity, Haffner method, inhibitory ratio (ddy strain of male mice [4]; [8])	Acute toxicity: death number of mice/number of mice tested (ddy strain of male mice [5]; 2000 mg/kg oral)	also measured
CN(C)C(=O)N(C)C(=O)Nc1ccc(Br)cc1 [Compound No. 16, 1,1,3-Trimethyl-5-(4-bromophenyl)biuret]	103%	48%	74 mg/kg	–	–	–	–	–	ED50 (ddy strain of male mice [2]; Mus musculus): 60 mg/kg
CN(C)C(=O)N(C)C(=O)Nc1ccccc1C(F)(F)F [Compound No. 17, 1,1,3-Trimethyl-5-(2-trifluoromethylphenyl)biuret]	65%	–	–	12.5%	1/4	66%	37.5%	–	–
COc1ccc(NC(=O)N(C)C(=O)N(C)C)cc1 [Compound No. 23, 1,1,3-Trimethyl-5-(4-methoxyphenyl)biuret]	75%	–	80 mg/kg	–	–	33%	–	–	ED50 (ddy strain of male mice [2]; Mus musculus): 39 mg/kg
Cc1ccc(NC(=O)N(C)C(=O)N(C)C)cc1 [Compound No. 28, 1,1,3-Trimethyl-5-(4-methylphenyl)biuret]	52%	23%	80 mg/kg	–	–	–	–	0/4	ED50 (ddy strain of male mice [2]; Mus musculus): 33 mg/kg
CN(C)C(=O)N(C(=O)Nc1ccccc1)c1ccccc1 [Compound No. 42, 1,1-dimethyl-3,5-diphenylbiuret]	14%	–	–	–	0/4	–	–	3/4	inhibition in vivo at 200 mg/kg (ddy strain of male mice [2]; [9]): 62.5%; inhibition in vivo at 100 mg/kg [3, 7]: 34%; inhibition in vivo at 200 mg/kg (ddy strain of male mice [4]; [10]): 50%
CCCNC(=O)N(C)C(=O)N(C)c1ccccc1 [Compound No. 55, 1,3-Dimethyl-1-phenyl-5-n-propylbiuret]	80%	–	90 mg/kg	–	1/4	–	–	–	ED50 (ddy strain of male mice [2]; Mus musculus): 80 mg/kg; Acute toxicity: death number of mice/number of mice tested (ddy strain of male mice [5]; 1500 mg/kg oral): 4/4; inhibition in vivo at 100 mg/kg [3, 7]: 73%
CCN(CC)C(=O)N(C)C(=O)Nc1ccccc1 [Compound No. 57, 1,1-diethyl-3-methyl-5-phenylbiuret]	19%	–	–	–	–	–	–	1/4	inhibition in vivo at 100 mg/kg (ddy strain of male mice [2]; [9]): 37.5%; inhibition in vivo at 100 mg/kg ([3]; po, 3 h): 23%; inhibition in vivo at 200 mg/kg (ddy strain of male mice [4]; [10]): 50%
CN(C)C(=O)N(C)C(=O)Nc1c(F)c(F)cc(F)c1F [compound 9, 1,1,3-Trimethyl-5-(2,3,5,6-tetrafluorophenyl)biuret]	33%	–	–	87.5%	4/4	24%	50%	–	Acute toxicity: death number of mice/number of mice tested (ddy strain of male mice [5]; 500 mg/kg oral): 0/4
CN(C)C(=O)N(C)C(=O)Nc1cccc(Cl)c1 [compound 11, 1,1,3-Trimethyl-5-(3-chlorophenyl)biuret]	43%	30%	–	62.5%	–	–	–	–	Analgesic activity, Haffner method, inhibitory ratio (ddy strain of male mice [4]; 200 mg/kg oral): 75%
CN(C)C(=O)N(C)C(=O)Nc1cccc(C(F)(F)F)c1 [compound 18, 1,1,3-Trimethyl-5-(3-trifluoromethylphenyl)biuret]	62%	32%	64 mg/kg	37.5%	0/4	–	–	4/4	–
Cc1ccccc1NC(=O)N(C)C(=O)N(C)C [compound 26, 1,1,3-Trimethyl-5-(2-methylphenyl)biuret]	41%	–	–	37.5%	–	29%	50%	–	–
Cc1cccc(NC(=O)N(C)C(=O)N(C)C)c1 [compound 27, 1,1,3-Trimethyl-5-(3-methylphenyl)biuret]	31%	–	–	75%	–	28%	37.5%	2/4	–
CCN(C(=O)Nc1ccccc1)C(=O)N(C)C [compound 36, 1,1-Dimethyl-3-ethyl-5-phenylbiuret]	12%	–	–	62.5%	0/4	23%	–	3/4	inhibition in vivo at 100 mg/kg (ddy strain of male mice [4]; Mus musculus, 100 mg/kg oral, 45 minutes before morphine hydrochloride, read-out: Analgesic activity, Haffner method, inhibitory ratio): 62.5%
CCCCN(C(=O)Nc1ccccc1)C(=O)N(C)C [compound 38, 1,1-Dimethyl-3-n-butyl-5-phenylbiuret]	18%	–	–	37.5%	0/4	–	–	3/4	inhibition in vivo at 100 mg/kg [3, 7]: 31%; inhibition in vivo at 200 mg/kg (ddy strain of male mice [4]; [10]): 37.5%
CCCN(C)C(=O)N(C)C(=O)Nc1ccccc1 [compound 46, 1,3-Dimethyl-1-n-propyl-5-phenylbiuret]	44%	26%	–	–	1/4	–	37.5%	4/4	Analgesic activity, acetic acid-induced stretching method, inhibitory ratio (ddy strain of male mice [2]; 60 mg/kg oral): 75%

— US4371544A, “Pharmaceutical composition containing 1,1,3,5-substituted biuret compound” (Taiho Pharmaceutical Company Limited, priority 1979, dated 1983)
